Assay results as given in ChEMBL document CHEMBL3826971 (Bioorg Med Chem Lett, 2016).

Experiment: Acute toxicity in ip dosed mouse measured after 72 hrs
Type: organism-based
Details: in vivo

## CN(C)C(=O)Oc1cccc([N+](C)(C)C)c1.COS(=O)(=O)[O-] [NEOSTIGMINE METHYLSULFATE]
  LD50 at 72 h: 0.51 mg/kg

## CN(C)C(=O)Oc1ccc[n+](C)c1.[Br-] [PYRIDOSTIGMINE BROMIDE]
  LD50 at 72 h: 3.3 mg/kg
